Measurements reported in PMC3959874 (European journal of dermatology : EJD, 2013).
Read-outs that look alike come from different tables or passages of the source.

Columns and labels:
Endothelin ETB = Endothelin ETB (Homo sapiens, UniProt P24530); assay: Radioligand binding assay; settings: 10 μM; 25 °C, 120 min
Adenosine A1 = Adenosine A1 (Homo sapiens, UniProt P30542); assay: Radioligand binding assay; settings: 10 μM; 25 °C, 90 min
CYP450, 2C9 = CYP450, 2C9 (Homo sapiens, UniProt P11712); assay: Cytochrome P450 enzyme assay; assay type: in vitro ADME; settings: 10 μM; 37 °C, 45 min
[1] = target: Transporter, Norepinephrine (NET) (Homo sapiens, UniProt P23975); assay: Radioligand binding assay; settings: 10 μM; 4 °C, 180 min
Transporter, Norepinephrine (NET), sequence (P23975 whole entry): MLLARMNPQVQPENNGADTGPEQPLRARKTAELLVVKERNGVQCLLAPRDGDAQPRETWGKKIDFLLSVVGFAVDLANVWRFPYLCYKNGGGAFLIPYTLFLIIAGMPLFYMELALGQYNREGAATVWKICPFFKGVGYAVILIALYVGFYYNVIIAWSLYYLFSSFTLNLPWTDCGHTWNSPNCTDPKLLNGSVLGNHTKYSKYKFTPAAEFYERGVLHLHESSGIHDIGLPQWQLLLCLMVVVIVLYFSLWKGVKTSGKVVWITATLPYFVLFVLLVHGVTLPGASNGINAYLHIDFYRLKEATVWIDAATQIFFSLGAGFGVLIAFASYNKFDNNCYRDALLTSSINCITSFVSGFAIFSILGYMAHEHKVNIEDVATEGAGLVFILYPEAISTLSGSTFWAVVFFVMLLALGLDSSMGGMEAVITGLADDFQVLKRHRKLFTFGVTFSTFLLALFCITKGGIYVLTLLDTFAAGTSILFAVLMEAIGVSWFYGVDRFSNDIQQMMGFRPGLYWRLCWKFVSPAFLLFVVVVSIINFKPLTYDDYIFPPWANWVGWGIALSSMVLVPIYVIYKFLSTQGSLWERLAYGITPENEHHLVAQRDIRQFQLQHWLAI

Potassium Channel hERG = Potassium Channel hERG (Homo sapiens, UniProt Q12809); assay: Radioligand binding assay; settings: 10 μM; 25 °C, 60 min
Opiate n (OP3, MOP) = Opiate n (OP3, MOP) (Homo sapiens, UniProt P35372); assay: Radioligand binding assay; settings: 10 μM; 25 °C, 60 min
Adrenergic β1 = Adrenergic β1 (Homo sapiens, UniProt P08588); assay: Radioligand binding assay; settings: 10 μM; 25 °C, 120 min
Glutamate, NMDA, Agonism = assay: Radioligand binding assay; set-up: species or system rat; settings: 10 μM; 4 °C, 20 min
Endothelin ETA = Endothelin ETA (Homo sapiens, UniProt P25101); assay: Radioligand binding assay; settings: 10 μM; 37 °C, 120 min
Adenosine A3 = Adenosine A3 (Homo sapiens, UniProt P0DMS8); assay: Radioligand binding assay; settings: 10 μM; 25 °C, 60 min
[2] = target: Platelet Activating Factor (PA F) (Homo sapiens, UniProt P25105); assay: Radioligand binding assay; settings: 10 μM; 25 °C, 180 min
[3] = target: Nicotinic Acetylcholine a1, Bungarotoxin (Homo sapiens, UniProt P02708+P07510+Q07001); assay: Radioligand binding assay; settings: 10 μM; 25 °C, 120 min
Purinergic P2, = assay: Radioligand binding assay; set-up: species or system rat; settings: 10 μM; 25 °C, 60 min
[4] = target: Transporter, Serotonin (5-Hyd roxytryptamine) (SERT) (Homo sapiens, UniProt P31645); assay type: binding; settings: 10 μM; 25 °C, 60 min
[5] = target: Leukotriene, Cysteinyl CysLT 1 (Homo sapiens, UniProt Q9Y271); assay: Radioligand binding assay; settings: 10 μM; 25 °C, 30 min
[6] = tested on: Glutamate, NMDA, Phencyclidine; assay: Radioligand binding assay; set-up: species or system rat; settings: 10 μM; 25 °C, 45 min
Adrenergic a2A = Adrenergic a2A (Homo sapiens, UniProt P08913); assay: Radioligand binding assay; settings: 10 μM; 25 °C, 60 min
Adrenergic a2A, sequence (P08913 whole entry): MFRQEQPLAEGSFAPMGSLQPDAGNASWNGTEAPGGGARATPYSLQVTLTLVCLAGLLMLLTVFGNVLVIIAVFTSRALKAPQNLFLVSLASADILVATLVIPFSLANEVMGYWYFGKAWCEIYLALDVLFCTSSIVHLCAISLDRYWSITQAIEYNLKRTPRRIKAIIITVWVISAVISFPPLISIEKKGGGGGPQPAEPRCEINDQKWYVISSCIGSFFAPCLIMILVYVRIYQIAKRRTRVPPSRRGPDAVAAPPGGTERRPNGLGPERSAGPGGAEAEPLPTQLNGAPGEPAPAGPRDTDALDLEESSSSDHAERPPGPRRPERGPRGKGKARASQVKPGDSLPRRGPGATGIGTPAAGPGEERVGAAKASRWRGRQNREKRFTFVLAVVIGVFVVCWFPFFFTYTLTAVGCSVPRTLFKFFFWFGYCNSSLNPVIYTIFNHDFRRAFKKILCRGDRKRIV

CYP450, 3A4 = CYP450, 3A4 (Homo sapiens, UniProt P08684); assay: Cytochrome P450 enzyme assay; assay type: in vitro ADME; settings: 10 μM; 37 °C, 30 min
Nicotinic Acetylcholine = assay: Radioligand binding assay; set-up: species or system human; settings: 10 μM; 25 °C, 60 min
Melatonin MT1 = Melatonin MT1 (Homo sapiens, UniProt P48039); assay: Radioligand binding assay; settings: 10 μM; 25 °C, 180 min
Melatonin MT1, sequence (P48039 whole entry): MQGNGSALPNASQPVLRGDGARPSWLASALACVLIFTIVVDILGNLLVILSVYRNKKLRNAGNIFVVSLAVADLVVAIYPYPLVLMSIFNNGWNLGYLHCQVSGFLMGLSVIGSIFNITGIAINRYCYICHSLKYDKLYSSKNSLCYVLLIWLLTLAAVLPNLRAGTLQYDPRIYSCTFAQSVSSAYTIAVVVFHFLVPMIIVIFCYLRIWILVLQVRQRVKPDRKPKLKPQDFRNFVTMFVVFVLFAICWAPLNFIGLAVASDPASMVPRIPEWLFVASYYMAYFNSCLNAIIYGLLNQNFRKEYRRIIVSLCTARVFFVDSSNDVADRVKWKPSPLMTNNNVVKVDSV

GABAA, Muscimol, Central = assay: Radioligand binding assay; set-up: species or system rat; settings: 10 μM; 4 °C, 10 min
CYP450, 2D6 = CYP450, 2D6 (Homo sapiens, UniProt P10635); assay: Cytochrome P450 enzyme assay; assay type: in vitro ADME; settings: 10 μM; 37 °C, 45 min
CYP450, 2D6, sequence (P10635 whole entry): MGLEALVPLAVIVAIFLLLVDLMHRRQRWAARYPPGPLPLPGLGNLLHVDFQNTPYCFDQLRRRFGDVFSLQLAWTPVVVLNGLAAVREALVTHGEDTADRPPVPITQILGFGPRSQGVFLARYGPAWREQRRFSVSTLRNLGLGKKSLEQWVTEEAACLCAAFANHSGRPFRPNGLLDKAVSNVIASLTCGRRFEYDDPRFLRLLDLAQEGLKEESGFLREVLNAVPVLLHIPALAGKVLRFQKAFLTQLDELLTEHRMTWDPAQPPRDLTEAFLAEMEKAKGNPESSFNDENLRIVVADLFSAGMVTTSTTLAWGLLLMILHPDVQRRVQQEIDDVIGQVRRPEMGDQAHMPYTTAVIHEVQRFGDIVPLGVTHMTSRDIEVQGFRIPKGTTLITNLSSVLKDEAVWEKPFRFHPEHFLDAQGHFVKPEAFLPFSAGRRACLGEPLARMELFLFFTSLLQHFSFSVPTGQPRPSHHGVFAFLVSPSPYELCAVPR

CYP450, 1A2 = CYP450, 1A2 (Homo sapiens, UniProt P05177); assay: Cytochrome P450 enzyme assay; assay type: in vitro ADME; settings: 10 μM; 37 °C, 30 min
CYP450, 1A2, sequence (P05177 whole entry): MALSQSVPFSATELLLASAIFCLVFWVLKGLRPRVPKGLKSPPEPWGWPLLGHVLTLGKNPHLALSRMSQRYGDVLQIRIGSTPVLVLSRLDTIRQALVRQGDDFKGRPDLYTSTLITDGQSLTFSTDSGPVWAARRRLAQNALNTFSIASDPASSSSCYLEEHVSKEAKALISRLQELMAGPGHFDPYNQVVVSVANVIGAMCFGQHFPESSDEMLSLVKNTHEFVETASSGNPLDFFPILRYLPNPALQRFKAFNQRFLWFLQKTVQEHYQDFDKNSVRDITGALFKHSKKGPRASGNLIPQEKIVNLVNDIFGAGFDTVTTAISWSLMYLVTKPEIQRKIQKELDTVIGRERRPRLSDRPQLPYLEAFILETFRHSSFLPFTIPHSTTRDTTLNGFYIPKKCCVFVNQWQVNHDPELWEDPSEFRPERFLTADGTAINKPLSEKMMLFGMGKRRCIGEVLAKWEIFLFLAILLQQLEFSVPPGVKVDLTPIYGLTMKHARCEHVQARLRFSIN

Imidazoline I2, Central = assay: Radioligand binding assay; set-up: species or system rat; settings: 10 μM; 25 °C, 30 min
Dopamine D4.2 = Dopamine D4.2 (Homo sapiens, UniProt P21917, DEL265-296); assay: Radioligand binding assay; settings: 10 μM; 25 °C, 120 min
[7] = target: Serotonin (5-Hydroxytryptam ine) 5-HT3 (Homo sapiens, UniProt P46098); assay: Radioligand binding assay; settings: 10 μM; 37 °C, 60 min
Serotonin (5-Hydroxytryptam ine) 5-HT3, sequence (P46098 24-478): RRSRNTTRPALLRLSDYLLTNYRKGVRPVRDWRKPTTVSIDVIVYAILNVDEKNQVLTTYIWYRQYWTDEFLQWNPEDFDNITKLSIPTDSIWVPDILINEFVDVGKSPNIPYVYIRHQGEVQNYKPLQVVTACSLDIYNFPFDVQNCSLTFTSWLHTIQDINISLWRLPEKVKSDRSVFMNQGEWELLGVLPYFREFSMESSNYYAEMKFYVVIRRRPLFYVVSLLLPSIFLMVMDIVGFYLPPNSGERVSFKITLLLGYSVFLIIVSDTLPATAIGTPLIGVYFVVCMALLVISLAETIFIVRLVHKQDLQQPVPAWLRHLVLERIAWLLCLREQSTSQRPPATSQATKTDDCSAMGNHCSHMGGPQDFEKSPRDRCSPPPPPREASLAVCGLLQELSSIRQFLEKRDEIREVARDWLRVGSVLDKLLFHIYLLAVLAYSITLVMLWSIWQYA

Glucocorticoid = Glucocorticoid (Homo sapiens, UniProt P04150); assay: Radioligand binding assay; settings: 10 μM; 25 °C, 120 min
Glucocorticoid, sequence (P04150 whole entry): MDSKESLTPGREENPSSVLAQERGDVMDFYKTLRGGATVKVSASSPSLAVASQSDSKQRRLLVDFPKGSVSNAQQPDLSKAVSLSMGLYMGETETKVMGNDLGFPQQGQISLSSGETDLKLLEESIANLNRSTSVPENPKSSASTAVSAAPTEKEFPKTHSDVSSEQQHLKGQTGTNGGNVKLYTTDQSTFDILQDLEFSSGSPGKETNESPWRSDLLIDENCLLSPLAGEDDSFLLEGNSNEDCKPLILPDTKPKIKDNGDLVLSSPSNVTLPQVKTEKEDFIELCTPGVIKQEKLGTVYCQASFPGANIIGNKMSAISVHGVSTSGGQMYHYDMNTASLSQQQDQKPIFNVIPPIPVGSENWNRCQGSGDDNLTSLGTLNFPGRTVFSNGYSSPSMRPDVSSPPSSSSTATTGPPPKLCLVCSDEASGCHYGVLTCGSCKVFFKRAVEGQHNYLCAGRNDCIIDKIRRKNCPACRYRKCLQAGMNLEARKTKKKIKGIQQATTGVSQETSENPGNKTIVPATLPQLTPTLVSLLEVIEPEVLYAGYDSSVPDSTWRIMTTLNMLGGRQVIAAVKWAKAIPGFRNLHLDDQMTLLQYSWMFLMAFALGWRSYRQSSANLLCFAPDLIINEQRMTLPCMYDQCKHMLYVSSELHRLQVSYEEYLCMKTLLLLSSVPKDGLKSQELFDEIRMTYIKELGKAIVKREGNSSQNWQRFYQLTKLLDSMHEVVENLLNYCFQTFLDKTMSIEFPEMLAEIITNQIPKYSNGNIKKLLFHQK

Adrenergic β2 = Adrenergic β2 (Homo sapiens, UniProt P07550); assay: Radioligand binding assay; settings: 10 μM; 25 °C, 60 min
Interleukin IL-1 = Interleukin IL-1 (Mus musculus, UniProt P13504); assay: Radioligand binding assay; settings: 10 μM; 37 °C, 120 min
Calcium Channel N-Type = Calcium Channel N-Type (Rattus norvegicus, UniProt Q02294); assay: Radioligand binding assay; settings: 10 μM; 4 °C, 30 min
TLR7 = assay: In vitro TLR7-dependent cytokine induction, overall potency comparison; assay type: cell-based
Muscarinic M2 = Muscarinic M2 (Homo sapiens, UniProt P08172); assay: Radioligand binding assay; settings: 10 μM; 25 °C, 120 min
Muscarinic M2, sequence (P08172 whole entry): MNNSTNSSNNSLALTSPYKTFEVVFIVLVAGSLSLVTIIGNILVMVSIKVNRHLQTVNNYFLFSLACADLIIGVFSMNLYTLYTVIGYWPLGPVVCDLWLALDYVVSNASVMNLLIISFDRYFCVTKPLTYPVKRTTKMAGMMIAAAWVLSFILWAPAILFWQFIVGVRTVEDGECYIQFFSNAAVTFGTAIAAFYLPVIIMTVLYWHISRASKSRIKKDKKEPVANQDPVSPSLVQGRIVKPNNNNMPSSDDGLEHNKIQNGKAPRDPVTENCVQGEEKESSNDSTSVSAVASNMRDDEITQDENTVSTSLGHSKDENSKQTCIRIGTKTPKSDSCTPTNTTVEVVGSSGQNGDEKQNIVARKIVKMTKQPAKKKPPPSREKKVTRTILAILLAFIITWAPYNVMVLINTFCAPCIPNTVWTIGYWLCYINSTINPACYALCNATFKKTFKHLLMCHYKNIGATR

Dopamine D1 = Dopamine D1 (Homo sapiens, UniProt P21728); assay: Radioligand binding assay; settings: 10 μM; 37 °C, 120 min
Purinergic P2x = assay: Radioligand binding assay; set-up: species or system rabbit; settings: 10 μM; 25 °C, 30 min
Histamine H1 = Histamine H1 (Homo sapiens, UniProt P35367); assay type: binding; settings: 10 μM; 25 °C, 180 min
Phorbol Ester = assay: Radioligand binding assay; set-up: species or system mouse; settings: 10 μM; 25 °C, 60 min
Estrogen ERa = Estrogen ERa (Homo sapiens, UniProt P03372); assay: Radioligand binding assay; settings: 10 μM; 25 °C, 120 min
Potassium Channel [KATP] = assay: Radioligand binding assay; set-up: species or system human; settings: 10 μM; 25 °C, 120 min
[8] = tested on: murine macrophage cell line RAW 264.7; assay: Cytokine induction; assay type: cell-based; settings: RAW 264.7 cells, graded doses overnight, ELISA (figure 1A)
[9] = assay type: in vivo, mice; settings: for Body weight change after a single intravenous injection of the MTD: 150 mg/kg TMX-202 or 15 mg/kg IMQ i.v. (figure 4)
Bradykinin B1 = Bradykinin B1 (Homo sapiens, UniProt P46663); assay: Radioligand binding assay; settings: 10 μM; 25 °C, 60 min
Bradykinin B1, sequence (P46663 whole entry): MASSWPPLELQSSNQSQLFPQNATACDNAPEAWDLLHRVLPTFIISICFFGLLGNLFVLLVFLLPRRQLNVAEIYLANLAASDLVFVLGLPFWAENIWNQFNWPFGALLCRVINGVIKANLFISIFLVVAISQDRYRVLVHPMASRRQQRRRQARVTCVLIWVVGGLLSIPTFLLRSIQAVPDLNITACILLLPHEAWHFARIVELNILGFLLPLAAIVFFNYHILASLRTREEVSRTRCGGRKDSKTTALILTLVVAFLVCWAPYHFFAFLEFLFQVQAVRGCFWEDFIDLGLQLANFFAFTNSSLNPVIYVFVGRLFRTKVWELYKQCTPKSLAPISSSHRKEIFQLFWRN

Adenosine A1, sequence (P30542 whole entry): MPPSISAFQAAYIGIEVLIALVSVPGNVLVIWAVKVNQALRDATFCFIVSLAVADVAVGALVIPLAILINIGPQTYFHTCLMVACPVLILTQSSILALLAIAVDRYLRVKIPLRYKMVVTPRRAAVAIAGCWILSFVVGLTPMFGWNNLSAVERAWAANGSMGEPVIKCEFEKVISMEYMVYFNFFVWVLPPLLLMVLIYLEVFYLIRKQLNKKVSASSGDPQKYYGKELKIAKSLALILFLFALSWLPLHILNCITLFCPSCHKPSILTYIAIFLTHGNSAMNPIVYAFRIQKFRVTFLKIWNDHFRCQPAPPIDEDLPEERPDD

Q: What does the source list for `CCCCCCCCCCCC(=O)OC[C@@H](COP(=O)(O)OCCNC(=O)c1ccc(Cn2c(=O)[nH]c3c(N)nc(OCCOC)nc32)cc1)OC(=O)CCCCCCCCCCC` [TMX-202]?
A: Percent inhibition of specific radioligand binding (Endothelin ETB): −7%; Percent inhibition of specific radioligand binding (Adenosine A1): 10%; Percent inhibition of enzyme activity (CYP450, 2C9): −4%; Percent inhibition of specific radioligand binding [1]: 57%; Percent inhibition of specific radioligand binding (Potassium Channel hERG): −4%; Percent inhibition of specific radioligand binding (Opiate n (OP3, MOP)): 42%; Percent inhibition of specific radioligand binding (Adrenergic β1): 18%; Percent inhibition of specific radioligand binding (Glutamate, NMDA, Agonism): 10%; Percent inhibition of specific radioligand binding (Endothelin ETA): 13%; Percent inhibition of specific radioligand binding (Adenosine A3): 6%; Percent inhibition of specific radioligand binding [2]: 33%; Percent inhibition of specific radioligand binding [3]: −3%; Percent inhibition of specific radioligand binding (Purinergic P2,): 8%; Percent inhibition of specific radioligand binding [4]: 18%; Percent inhibition of specific radioligand binding [5]: 10%; Percent inhibition of specific radioligand binding [6]: 2%; Percent inhibition of specific radioligand binding (Adrenergic a2A): 3%; Percent inhibition of enzyme activity (CYP450, 3A4): −1%; Percent inhibition of specific radioligand binding (Nicotinic Acetylcholine): 9%; Percent inhibition of specific radioligand binding (Melatonin MT1): 3%; Percent inhibition of specific radioligand binding (GABAA, Muscimol, Central): −3%; Percent inhibition of enzyme activity (CYP450, 2D6): 0%; Percent inhibition of enzyme activity (CYP450, 1A2): −4%; Percent inhibition of specific radioligand binding (Imidazoline I2, Central): −3%; Percent inhibition of specific radioligand binding (Dopamine D4.2): 14%; Percent inhibition of specific radioligand binding [7]: 3%; Percent inhibition of specific radioligand binding (Glucocorticoid): −1%; Percent inhibition of specific radioligand binding (Adrenergic β2): 3%; Percent inhibition of specific radioligand binding (Interleukin IL-1): 5%; Percent inhibition of specific radioligand binding (Calcium Channel N-Type): −12%; Potency relative to IMQ in causing TLR7-dependent cytokine induction (TLR7): 100 times; Percent inhibition of specific radioligand binding (Muscarinic M2): 0%; Percent inhibition of specific radioligand binding (Dopamine D1): 15%; Percent inhibition of specific radioligand binding (Purinergic P2x): 9%; Percent inhibition of specific radioligand binding (Histamine H1): −6%; Percent inhibition of specific radioligand binding (Phorbol Ester): −8%; Percent inhibition of specific radioligand binding (Estrogen ERa): 7%; Percent inhibition of specific radioligand binding (Potassium Channel [KATP]): 8%; Potency of mTNFα induction compared with IMQ [8]: more potent cytokine inducer; MTD (molar) ([9]; C57BL/6 mice, intravenous administration): approximately 163 μmoles/kg; Body weight change after a single intravenous injection of the MTD ([9]; Tlr7−/− or Myd88−/− mice): no significant body weight loss; Body weight change after a single intravenous injection of the MTD ([9]; WT mice): significant reduction in body weight; Percent inhibition of specific radioligand binding (Bradykinin B1): 3%
